This assay has as its target T1, SCD (stearoyl-CoA desaturase) (Rattus norvegicus, UniProt P07308).
T1 construct: The rat liver microsomes were collected according to the procedure described in Ozols (1990) Methods Enzm, 182:225; from tissue; host or cells: liver microsomes of male Sprague Dawley rats after induction with a carbohydrate-rich diet
T1 sequence (P07308 1-358): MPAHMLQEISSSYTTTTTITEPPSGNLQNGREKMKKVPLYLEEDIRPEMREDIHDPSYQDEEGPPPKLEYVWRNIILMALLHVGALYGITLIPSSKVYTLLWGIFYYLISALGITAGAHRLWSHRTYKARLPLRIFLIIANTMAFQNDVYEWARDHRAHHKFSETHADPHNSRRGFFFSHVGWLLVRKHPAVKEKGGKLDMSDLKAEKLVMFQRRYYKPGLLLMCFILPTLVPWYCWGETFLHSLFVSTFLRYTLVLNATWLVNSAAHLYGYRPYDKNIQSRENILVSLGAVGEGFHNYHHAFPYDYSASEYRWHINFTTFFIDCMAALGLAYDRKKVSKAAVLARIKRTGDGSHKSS
The assay is described as follows: SCD assay with rat liver microsomes ([3H]stearoyl CoA desaturation, adapted from Talamo and Bloch). The class given is biochemical. Particulars: rat liver microsomes 0.2 mg/ml final, 30 min preincubation, stearoyl CoA substrate, 45 min, room temperature. An excerpt:
The identification of compounds of the invention as SCD inhibitors was readily accomplished using the SCD enzyme and microsomal assay procedure described in Talamo and Bloch (1969) Analytical Biochemistry 29:300-304.
The rat liver microsomes were collected according to the procedure described in Ozols (1990) Methods Enzm, 182:225.
Male Sprague Dawley Rats were placed on regimented fasting protocol for one week to stimulate SCD enzymatic activity. 48-hour periods were alternated between feeding and fasting to induce and down-regulate SCD activity with SCD activity being induced via carbohydrate rich diet prior to liver perfusion and collection.
The supernatant was then aspirated off and the collected microsomal pellet washed in 25 mL of Glycerol PBS (1× PBS 7.4, 20% Glycerol) and resuspended in 4-5 volumes of Glycerol PBS.
SCD was determined in the desaturase assay buffer. This assay buffer contained 0.1 M Tris buffer, pH 7.2, 2 mM NADH, 4.8 mM ATP, 0.5 mM CoA, 4.8 mM MgCl2, and 0.1% BSA.
The Procedure for the SCD Assay (Adapted from Talamo and Bloch (1969) Analytical Biochemistry 29:300-304)
1 μl of each compound of Formula I was added to an assay plate by a low volume (0.5-10 μL) multichannel pipette. A DMSO control was also prepared. The microsomes were quickly thawed and added to assay buffer so that a concentration of 0.4 mg/ml was achieved (0.2 mg/ml assay final). 50 μl of the microsome suspension in assay buffer was then added into each well in the compound assay plate, the plate was covered, and the microsomes preincubated with the compounds for 30 minutes on the orbital shaker, 50-75 rpm, at room temperature.
After preincubation, the reaction was initiated by the addition of 50 μl of substrate solution (20 μM Stearoyl CoA, [3H]Stearoyl CoA, 74nCi) to the preincubated microsomes/compound suspensions in MilliQ (Millipore) H2O. The reaction mixtures were then incubated for 45 minutes on the orbital shaker at 50-75 rpm at room temperature.
The reaction was terminated by the addition of 10 μl of 21% trichloroacetic acid (TCA) to the reaction mixture followed incubation on the orbital shaker for 30 minutes at 50-75 rpm at room temperature followed by centrifugation for 5 minutes at 3700 rpm.
50 μl of a 6% Bio-Bead suspension in H2O was added to the reaction mixture and the assay plate was sealed. The Bio-Bead mixture was incubated on the orbital shaker for 1 hour, 100-150 rpm at room temperature, and then the mixture was centrifuged at 2000 g for 5 minutes to pellet the Bio-Beads.
25 μl of the supernatant was harvested from each well and transferred to a detection plate. 100 μl of OptiPhase SuperMix scintillation cocktail (containing sufficient NaOH to neutralize the TCA) was added and the solutions mixed by vigorous shaking (300-400 rpm) for 5 minutes at room temperature.
A general note: Liver microsomes are a subcellular fraction often used to study metabolism.

The record followed here is patent publication US20090253693A1, “2H-BENZO[b][1,4]OXAZIN-3(4H)-ONE DERIVATIVES FOR USE AS STEAROYL CoA DESATURASE INHIBITORS” (priority 2008, published 2009).

Structures are written as SMILES. Counter-ions that a name gives are not always drawn.

Broadly, the IC50 is the concentration needed to halve the response being measured. High values mean weaker potency, low ones greater potency.

As for `O=C1COc2ccc(NCc3ccc(Cl)c(Cl)c3)cc2N1CCOc1ccccc1` [Compound 4, 6-(3,4-dichlorobenzylamino)-4-(2-phenoxyethyl)-2H-benzo[b][1,4]oxazin-3(4H)-one], the IC50 stood at 22.2 µM. In turn, `CC1Oc2ccc(NCc3ccc(Cl)c(C(F)(F)F)c3)cc2N(CCNC(=O)CO)C1=O` (racemic) [Compound 12, (±)-N-(2-(6-(4-chloro-3-(trifluoromethyl)benzylamino)-2-methyl-3-oxo-2H-benzo[b][1,4]oxazin-4(3H)-yl)ethyl)-2-hydroxyacetamide] came in with an IC50 of 0.001 to 0.01 µM. Then `CC(=O)NCCN1C(=O)COc2ccc(NCc3ccccc3)cc21` [Compound 2, N-(2-(6-(benzylamino)-3-oxo-2H-benzo[b][1,4]oxazin-4(3H)-yl)ethyl)acetamide hydrochloride], with 14.9 µM; and `O=C(CO)NCCN1C(=O)COc2ccc(NCc3ccc(Cl)c(Cl)c3)cc21` [Compound 8, N-(2-(6-(3,4-dichlorobenzylamino)-3-oxo-2H-benzo[b][1,4]oxazin-4(3H)-yl)ethyl)-2-hydroxyacetamide hydrochloride], with 0.00139 µM. With `CC(=O)NCCN1C(=O)COc2ccc(NCc3ccc(Cl)c(C(F)(F)F)c3)cc21` [Compound 5, N-(2-(6-(4-chloro-3-(trifluoromethyl)benzylamino)-3-oxo-2H-benzo[b][1,4]oxazin-4(3H)-yl)ethyl)acetamide hydrochloride] the figure was 0.00487 µM; with `CC(=O)NCCN1C(=O)COc2ccc(NCc3ccc(Cl)c(Cl)c3)cc21` [Compound 3, N-(2-(6-(3,4-dichlorobenzylamino)-3-oxo-2H-benzo[b][1,4]oxazin-4(3H)-yl)ethyl)acetamide hydrochloride], 0.0107 µM; with `CC1Oc2ccc(NCc3ccc(Cl)c(Cl)c3)cc2N(CCNC(=O)CO)C1=O` (racemic) [Compound 11, (±)-N-(2-(6-(3,4-dichlorobenzylamino)-2-methyl-3-oxo-2H-benzo[b][1,4]oxazin-4(3H)-yl)ethyl)-2-hydroxyacetamide], 0.08 µM. With `CC(=O)NCCN1C(=O)C(C)Oc2ccc(NCc3ccc(Cl)c(C(F)(F)F)c3)cc21` (racemic) [Compound 10, (±)-N-(2-(6-(4-chloro-3-(trifluoromethyl)benzylamino)-2-methyl-3-oxo-2H-benzo[b][1,4]oxazin-4(3H)-yl)ethyl)acetamide] the figure was 0.001 to 0.01 µM; with `NC(=O)CCN1C(=O)COc2ccc(NCc3ccc(Cl)c(Cl)c3)cc21` [Compound 1, 3-(6-(3,4-dichlorobenzylamino)-3-oxo-2H-benzo[b][1,4]oxazin-4(3H)-yl)propanamide], 0.0535 µM.

`CC(=O)NCCN1C(=O)COc2ccc(NCc3ccc(F)c(C(F)(F)F)c3)cc21` [Compound 6, N-(2-(6-(4-fluoro-3-(trifluoromethyl)benzylamino)-3-oxo-2H-benzo[b][1,4]oxazin-4(3H)-yl)ethyl)acetamide hydrochloride] registered an IC50 of 0.0078 µM. `CC(=O)NCCN1C(=O)C(C)Oc2ccc(NCc3ccc(Cl)c(Cl)c3)cc21` (racemic) [Compound 9, (±)-N-(2-(6-(3,4-dichlorobenzylamino)-2-methyl-3-oxo-2H-benzo[b][1,4]oxazin-4(3H)-yl)ethyl)acetamide] registered a half-maximal inhibitory concentration (IC50) of 0.001 to 0.01 µM. `O=C(NCCN1C(=O)COc2ccc(NCc3ccc(Cl)c(Cl)c3)cc21)c1ccccc1` [Compound 7, N-(2-(6-(3,4-dichlorobenzylamino)-3-oxo-2H-benzo[b][1,4]oxazin-4(3H)-yl)ethyl)benzamide] displayed a half-maximal inhibitory concentration (IC50) of 0.00252 µM.
